Reference: patent US11555047B2, “One-step synthesis of phosphate-based inhibitors and applications thereof” (UNIVERSITY OF SOUTH CAROLINA, priority 2019, dated 2023)
Like-named read-outs stand apart in the source and are kept apart here.

How the values were obtained:
TcRPI-B [1] = target: T1, TcRPI-B (Trypanosoma cruzi, UniProt A0ACM8Q8A9); conditions: known TcRPI-B inhibitors, FIG. 2; cited from earlier work
TcRPI-B [2] = target: T1, TcRPI-B; assay: TcRPI-B coupled enzyme assay following consumption of NADH at 340 nm; assay type: biochemical; conditions: for activity at 200 µM: compound 0.2 mM; for activity at 200 µM / activity at 500 µM / activity at 1000 µM / activity at 2000 µM: 2 mM R5P, mean of three determinations ± SD, read-out: percentage of TcRPI-B activity; for activity at 500 µM: compound 0.5 mM; for activity at 1000 µM: compound 1.0 mM; for activity at 2000 µM: compound 2.0 mM
Experimental: (§1) The activity of TcRPI-B was determined by a coupled enzyme assay following consumption of NADH at 340 nm, at 30° C., in a Beckman Coulter DU®600 Spectrophotometer, using a mixture containing 50 mM triethanolamine (pH 7.5), 5 mM MgCl2, […], 0.025 mM thiamine pyrophosphate, 1 unit of transketolase (EC 2.2.1.1), 1 unit of ribulose 5-phosphate 3-epimerase (EC 5.1.3.1), 20 units of triosephosphate isomerase (EC 5.3.1.1), 2 units of α-glycerophosphate dehydrogenase (EC 1.1.1.8), and 2 mM R5P for the screening of the inhibitors. For the determination of Ki, the concentration of R5P was 0.4 mM, 0.8 mM, and 2.0 mM.
(§2) The activity of TcRPE-1 was determined in the same reaction mixture, without TcRPI-B, and replacing R5P by 4 mM ribulose 5-phosphate (Ru5P). […] The reaction was started with the addition of TcRPI-B and further incubated for 10 minutes in the same tube, to surpass the lag observed with the recombinant RPI, and then the mixture was transferred to the spectrophotometer cuvette and the linear part of the progress curve was registered for 15 minutes. The screening of the inhibitors was performed using them at 0, 0.2, 0.5, 1.0 and 2.0 mM for both enzymes, TcRPI-B and TcRPE-1, and for the Ki determination for compound B (FIG. 4) the concentrations used were: 0, 10, 20, 40, 60 and 80 μM, at each R5P concentration used.

TcRPE-1 = TcRPE-1 coupled enzyme assay (same reaction mixture, without TcRPI-B, 4 mM Ru5P); assay type: biochemical, Trypanosoma cruzi; conditions: mean of three determinations ± SD
Experimental: as §1, §2

TcRPI-B [3] = target: T1, TcRPI-B; assay: Trypsin digestion LC/MSMS of TcRPI-B exposed to Compound B; assay type: binding; conditions: 500 μM compound, 100 μM TcRPI-B, 4° C., 30 minutes
Experimental: Sample preparation: Purified TcRPI-B was buffer exchanged into 50 mM ammonium bicarbonate (pH 8.0) by using a PD-10 desalting column (GE Life Sciences). The concentration of TcRPI-B was adjusted to 100 μM for the monomer [TcRPI-B: M.W.=19,816 g/mol; ε280=5,120 M^−1 cm^−1] using an Agilent 8453 UV-Visible spectrophotometer. A protein test sample was incubated with compound B (FIG. 2) at a final concentration of 500 μM at 4° C. for 30 minutes and a control sample was prepared that was in the absence of compound B. Samples to be analyzed by LC/MSMS were first quantitated for protein content using a Pierce™ bicinchoninic acid (BCA) Protein Assay Kit and normalized to 50 μg of protein by diluting the appropriate amount of sample in 50 mM ammonium bicarbonate. Normalized samples were digested with trypsin at a 50:1 protein:trypsin concentration. Samples were incubated for 4 hours and then aliquoted for LC-MS analysis.
Nanoflow LC: Chromatographic separation was achieved using a Thermo Scientific™ EASY-nLC™ 1200 system (Bremen, Germany). Pico-frit columns were purchased from New Objective (Woburn, Mass.) and bomb packed to a length of 20-30 cm with reverse phase ReproSil-Pur® 120 Å C18-AQ 3 μm particles (Dr. Maisch, Germany). […]

Row | Compound | activity at 200 µM (TcRPI-B [2]) | activity at 500 µM (TcRPI-B [2]) | activity at 1000 µM (TcRPI-B [2]) | activity at 2000 µM (TcRPI-B [2]) | percentage of TcRPE-1 activity (TcRPE-1; compound 0.2 mM) | percentage of TcRPE-1 activity (TcRPE-1; compound 0.5 mM) | percentage of TcRPE-1 activity (TcRPE-1; compound 1.0 mM) | percentage of TcRPE-1 activity (TcRPE-1; compound 2.0 mM) | Ki (TcRPI-B [2]; Dixon plots, R5P 0.4, 0.8 and 2 mM, inhibitor 0-80 μM, mean of four independent experiments, read-out: inhibition constant (Ki)) | type of inhibition (TcRPI-B [2]; plot of [R5P]/V vs. [B], three lines parallel) | covalent labeling of TcRPI-B peptide V66-R86 (TcRPI-B [3]) | Ki (TcRPI-B [1])
1 | O=C(NO)[C@H](O)[C@H](O)COP(=O)(O)O [Compound 4PEH, 4-phospho-D-erythronohydroxamic acid] |  |  |  |  |  |  |  |  |  |  |  | 1200 µM
2 | O=C(CBr)NCCOP(=O)(O)O [Compound C, 2-(2-bromoacetamido)ethyl dihydrogen phosphate] | 78.5 ± 4.8% | 62.7 ± 5.9% | 41.3 ± 2.7% | 18.3 ± 2.5% | 91.1 ± 5.1% | 85.8 ± 4.4% | 77.3 ± 7.5% | 65.1 ± 5.2% |  |  |  | 
3 | O=C(CF)NCCOP(=O)(O)O [Compound E, 2-(2-fluoroacetamido)ethyl dihydrogen phosphate] |  |  |  |  | 111 ± 10% | 103 ± 7% | 93.2 ± 11.1% | 83.5 ± 9.7% |  |  |  | 
4 | O=C[C@H](O)[C@H](O)[C@H](O)[C@H](O)COP(=O)(O)O [AlI6P] |  |  |  |  |  |  |  |  |  |  |  | 15000 µM
5 | O=C(CCl)NCCOP(=O)(O)O [Compound D, 2-(2-chloroacetamido)ethyl dihydrogen phosphate] | 107 ± 9% | 105 ± 7% | 98.5 ± 2.1% | 83.7 ± 8.9% | 100 ± 6% | 103 ± 5% | 95.5 ± 7.9% | 82.6 ± 12% |  |  |  | 

Second part, led by results:

Row | activity at 200 µM (TcRPI-B [2]) | activity at 500 µM (TcRPI-B [2]) | activity at 1000 µM (TcRPI-B [2]) | activity at 2000 µM (TcRPI-B [2]) | percentage of TcRPE-1 activity (TcRPE-1; compound 0.2 mM) | percentage of TcRPE-1 activity (TcRPE-1; compound 0.5 mM) | percentage of TcRPE-1 activity (TcRPE-1; compound 1.0 mM) | percentage of TcRPE-1 activity (TcRPE-1; compound 2.0 mM) | Ki (TcRPI-B [2]; Dixon plots, R5P 0.4, 0.8 and 2 mM, inhibitor 0-80 μM, mean of four independent experiments, read-out: inhibition constant (Ki)) | type of inhibition (TcRPI-B [2]; plot of [R5P]/V vs. [B], three lines parallel) | covalent labeling of TcRPI-B peptide V66-R86 (TcRPI-B [3]) | Compound | Ki (TcRPI-B [1])
6 | 98.1 ± 3.2% | 97.4 ± 0.5% | 95.3 ± 4.2% | 89.2 ± 3.5% | 100 ± 5% | 91.9 ± 4.3% | 87.4 ± 3.1% | 85.9 ± 4.4% |  |  |  | O=C(Cc1ccccc1)NCCOP(=O)(O)O [Compound A, 2-(2-phenylacetamido)ethyl dihydrogen phosphate] | 
7 | 25.2 ± 3.5% | 7.5 ± 3.9% | 1.2 ± 0.3% | 0% | 89.5 ± 4% | 89.5 ± 4% | 103 ± 5% | 57.4 ± 0.4% | 5.5 ± 0.1 µM | competitive inhibition | bound irreversibly to C69 | O=C(CI)NCCOP(=O)(O)O [Compound B, 2-(2-iodoacetamido)ethyl dihydrogen phosphate] | 
